One series has as its system SHANK3 mutant mice. Description: Open field test, SHANK3 mutant mice. The series is classed as in vivo, mouse. Particulars: 7-NI i.p. 20, 50 and 80 mg/kg. As for the experimental part:
Open field test: Mice were tested in an open field (45×45 cm) virtually divided into central and peripheral regions. Animal activity was recorded by video tracking (Noldus Ethovision). Each mouse was allowed to explore the apparatus for 5 minutes. The distance traveled, the number of rears and revolutions, the number of grooming bouts and cumulative grooming time, the number of head shaking or twitches, the number of entries in the center, and the time spent in the central and peripheral regions were recorded. Measures were recorded in 5-minute intervals.
A dose dependent study was conducted to determine the optimal dose that may produce the greatest effect on mice behavior. The SHANK3 mutant mice (n=5 for each group) were treated with the 7-NI (i.p) at doses of 0, 20, 50, and 80 mg/kg. This was followed by a set of behavioral tests to assess the proper dose of 7-NI that can reverse the autistic phenotypes observed in this model.
Initially, an open field test was performed to examine the general motor activity levels in mice that is measured by the distance travelled and velocity.
A 100 μL injection of the poly(sebacic acid-ricinoleic acid) (PSARA) gel formulation with 7NI was used to evaluate its effect in reversing ASD-like behaviors in SHANK3 mice. The motor activity, social interaction, anxiety and interest behaviors were examined using the behavior analyses as described herein.

Series [1] has as its system Mutant mice (CNTNAP2 and SHANK3 mouse models). Description: Sociability test, 7-NI-treated mutant mice (Example 3). Type of series: in vivo. Particulars: 7-NI IP 80 mg/kg/day for 7 days; mutant mice vs vehicle. As for the experimental part:
(§1) Behavioral testing started after 2 hours of treatment.
(§2) Three-chambered sociability test (see, FIG. 4B): Sociability and preference for social novelty and social recognition were tested in a three-chambered apparatus. The subjected mouse was first placed in the central, neutral chamber and allowed to explore for 10 minutes with all the doors closed. Next, doors were opened and the mouse was allowed to freely explore the other two empty chambers (1 and 2) for an additional 10 minutes. Lack of side preference was confirmed during this habituation.
(§3) Two cylindrical wire cages were placed, one in chamber 1 and the other in chamber 2. For the sociability test, the test animal was introduced to the middle chamber and allowed to adjust for 5 minutes. Then, an unfamiliar mouse was introduced into a wire cage in one of the side-chambers, and the other side-chamber remained empty. The time spent by the test mouse exploring the wire cage with an unfamiliar mouse inside was recorded for 5 minutes.
7-nitroindazole (7-NI) is a selective inhibitor of neuronal nitric oxide synthase. Mutant mice were administered with 7-NI […] (IP), 80 mg/kg/day for 7 days, as described hereinabove. […]

Series [2] deals with SH-SY5Y cells. Description: Western blot of 3-nitrotyrosine, mTOR signaling pathway components and synaptophysin. Type of series: cell-based, human. On the procedure: (§4) Human NB SH-SY5Y cells were obtained from the American Type Culture Collection (ATCC) and maintained in Dulbecco's modified Eagle's medium (DMEM) and Ham's F-12 (1:1) supplemented with 10% fetal bovine serum, 2 mM L-glutamine, and 100 U/ml penicillin-G/100 […] streptomycin in a humidified atmosphere (37° C., 5% CO2). Cells were plated onto 25 cm^2 and 75 cm^2 plates at a density of 7.0×10^5 and 2.1×10^6 cells/cm^2 respectively for Western blotting (WB) and 1×10^5 for immunofluorescence. The SH-SY5Y cells were treated with 100 μM 7-nitroindazole (7-NI) for 24 hours (Fujibayashi et al., 2015). This concentration was confirmed in a dose-response experiment (FIG. 14A) using an MTT viability assay.
(§5) SH-SY5Y cells were plated in 6 well plates, as well as on 22 mm^2 coverslips at a density of 6.0×10^4 cells/cm^2 and transfected with 20 nM nNOS siRNA (NOSIHSS1072, Invitrogen) for 24 hours, with the use of Lipofectamine RNAi MAX (56530, Invitrogen) according to the manufacturer's protocol. Then cells were washed with phosphate-buffered saline (PBS) and harvested for WB and fixed for immunofluorescence (Fujibayashi et al., 2015).
Cells were lysed in ice-cold RIPA buffer containing 50 mM Tris-HCl, 1% Nonidet P-40, 0.25% sodium deoxycholate, 150 mM NaCl, protease-, and phosphatase inhibitor cocktails, pH 7.4. After sonication, the lysates were centrifuged at 17,000 g for 30 minutes at 4° C., and the supernatant was collected. The protein concentrations were determined with the BCA protein assay. Proteins were resolved by SDS-PAGE, transferred to a PVDF membrane, and probed with the following antibodies: anti-pMTOR (rabbit, diluted 1:1000), anti-mTOR (rabbit, diluted 1:1000), anti-TSC2 (rabbit, diluted 1:1000), anti-nNOS (rabbit, diled 1:1000), anti-pAKT (rabbit, diluted 1:1000), anti-AKT (rabbit, diluted 1:1000), anti-pRPS6 (rabbit, diluted 1:1000), anti-RPS6 (mouse, diluted 1:1000), anti-synaptophysin (mouse, diluted 1:1000), anti-β-actin (rabbit, diluted 1:1000), anti-3-Nitrotyrosine (rabbit, diluted 1:5000) from Abcam. All primary antibodies, except anti-3-Nitrosine, were purchased from Cell Signaling Technology. The blots were then visualized using an enhanced chemiluminescence (ECL) system (Choi et al., 2018).

Series [3] can be described thus: Solubility of 7-nitroindazole in PNL formulation of Table 1. The series is classed as physicochemical. The note with it: PNL formulation of Table 1, clear liquid. The source says: Table 1 below presents an exemplary PNL formulation according to some embodiments of the present invention.
The formulation can be prepared by mixing the components at room or elevated temperature to form a clear liquid which 7-nitroindazole is soluble in at about 20% w/v.

Series [4] relates to SH-SY5Y cells. Description: Nitrite (Griess) assay in SH-SY5Y cells. Type of series: cell-based, human. The note with it: 7-NI 100 μM 24 hours or 20 nM nNOS siRNA 24 hours. On the procedure: as §4, §5
Released NO was measured with Griess assay Kit (Sigma-Aldrich, Cat. No. 23479) using the manufacturer's instructions.

Another series relates to CNTNAP2−/− mutant mice. Description: Three-chamber sociability test, CNTNAP2-/- mutant mice (M2). The series is classed as in vivo, mouse. Particulars: 7-NI i.p. 80 mg/kg daily for 10 days, vs untreated M2. On the procedure:
as §1, §2, §3
In another set of tests, the potential effects of inhibiting NO on the cognitive functions was assayed on an additional mouse model of ASD-CNTNAP2−/− mutant mice. The mice were divided into three testing groups: WT mice, CNTNAP2−/− mutant mice (M2), and mutant mice that were administered with 7-NI (M2+7NI).

Setting [5] is: 7-NI 100 μM 24 hours or nNOS silencing.

In the case of `O=[N+]([O-])c1cccc2cn[nH]c12` [7-NI, 7-nitroindazole], the “motor activity (distance travelled and velocity, open field)” value in the series with SHANK3 mutant mice was “no significant difference in the motor activity”. Moreover, in series [1], the “time interacting with the stranger cage (sociability test)” value is recorded as “spent significantly more time interacting with the stranger cage”. Moreover, in the series on SH-SY5Y cells [2] (7-NI 100 μM 24 hours or genetic ablation of nNOS), the “levels of synaptophysin (Syp, Western blot)” value is “significantly decreased the levels of synaptophysin”. In addition, the “3-Ntyr levels (Western blot)” value in the series on SH-SY5Y cells [2] (7-NI 100 μM 24 hours or nNOS knockdown) is “halved”. For the same compound, in the series with SH-SY5Y cells [2] (setting [5]), the “levels of TSC-2 (Western blot)” value was “significant increase in the levels of TSC-2”, the “phosphorylation of RPS6 (Western blot)” value is reported as “reduced”, the “phosphorylation of mTOR (Western blot)” value is given as “decrease in phosphorylation of mTOR” and the “phosphorylation of protein kinase-B (AKT) (Western blot)” value was “reduced”. In addition, in series [3], the “solubility in PNL formulation” value is listed as “about 20 % w/v”. The “nitrite content (Griess assay)” value in the series with SH-SY5Y cells [4] is “reduction of nitrite content”. Further, the “time interacting with the stranger mouse (three-chamber sociability)” value in the series on CNTNAP2−/− mutant mice is given as “spent significantly prolonged time interacting with the stranger mouse”.

Source of the values: patent US20250255850A1, “PHARMACEUTICAL COMPOSITIONS FOR TREATING NEUROLOGICAL CONDITIONS” (YISSUM RESEARCH DEVELOPMENT COMPANY OF THE HEBREW …, priority 2021, published 2025).
